According to PMC3942691, “The Dipeptide Monoester Prodrugs of Floxuridine and Gemcitabine—Feasibility of Orally Administrable Nucleoside Analogs” (Pharmaceuticals, 2014):

What was measured:
[1] = Enzymatic stability in Panc-1 cell homogenates; assay type: in vitro ADME; conditions: human, Panc-1 cell homogenates, pH 7.4; 500 µg/mL protein, 37 °C; read-out: Panc-1 cell homogenates t1/2
Procedure: Confluent Caco-2, Panc-1, and AsPC-1cells were rinsed twice with phosphate buffered saline (PBS). The cells were lysed with phosphate buffer (pH 7.4) by ultrasonication (Micro ultrasonic cell disrupter Model KT40, Kontes, Vineland, NJ, USA), and pelleted by centrifugation for 5 min at 1,000 × g. Protein amount was quantified with the Bio-Rad (Hercules, CA, USA) DC Protein Assay using bovine serum albumin as a standard. The amount of protein was adjusted to 500 µg/mL and hydrolysis reactions were carried out in 96-well plates (Corning). Caco-2, Panc-1, and AsPC-1 cell suspensions (250 µL) were placed in triplicate wells, the reactions were started with the addition of substrate, and cells were incubated at 37 °C for 120 min. At the desired time point, sample aliquots (35 µL) were removed and added to acetonitrile (ACN, 150 µL) with 0.1% TFA. The mixtures were filtered with a 0.45 µm filters at 1,000 × g for 10 min at 4 °C. The filtrate was then analyzed via reverse-phase HPLC.
The stability samples of prodrugs and their metabolites, and perfusion samples were determined on an Agilent HPLC system (Agilent Technologies, Santa Clara, CA, USA). The HPLC system consisted of Agilent pumps (1100 series), an Agilent autosampler (1200 series), and an Agilent UV-Vis detector (1100 series) controlled by Chemstation® 32 software (version B.01.03). Samples were resolved in an Agilent Eclipse Plus C18 reverse-phase column (3.5 µm, 4.6 × 75 mm) equipped with a guard column. The mobile phase consisted of 0.1% TFA/water (Solvent A) and 0.1% TFA/acetonitrile (Solvent B) with the solvent B gradient changing from 0%–56% at a rate of […] during a 15 min run for gemcitabine and gemcitabine prodrugs. Standard curves generated for each prodrug and their parent drug were utilized for quantitation of integrated area under peaks. The detection wavelength was 254 nm and spectra were acquired in the 220–380 nm wavelength range. The detection wavelength for phenol red was 430 nm.
(§1) The experiments concerning drug and their prodrug stability were performed at 37 °C in 0.01 N HCl, SIF (pH 6.0), and pH 7.4 phosphate buffer. […] Prodrug metabolites such as floxuridine, 5-fluorouracil (5-FU), gemcitabine, 2′-deoxy-2′,2′-difluorouridine, uracil, and cytosine were monitored along with prodrug disappearance in this experiment.

[2] = Chemical stability in 0.01 N HCl, SIF (pH 6.0) and pH 7.4 phosphate buffer; assay type: physicochemical
Procedure: The nonenzymatic hydrolysis of the prodrugs was determined as described above, except that each well contained pH 7.4 phosphate buffers (10 mmol/L) instead of cell homogenate.
as §1

[3] = Drug concentration and species in mouse plasma after in situ perfusion; assay type: in vivo; conditions: for first metabolite (5-FU or cytosine) in plasma / parent drug, share of totally observed amount in plasma: mouse plasma after in situ perfusion; for prodrug form, share of totally observed amount in plasma: mouse plasma at 2 h following in situ perfusion; for parent drug, share of totally observed amount in plasma: parent drug perfused
Procedure: All animal experiments were conducted using protocols approved by the University of Michigan Committee of Use and Care of Animals (UCUCA). Female BALB/c mice (Charles River, IN, USA) weighing 20–25 g were used for all perfusion studies. Prior to each experiment, mice were fasted overnight with free access to water.
At the start of the study, the test compound (100 µM) in perfusion buffer (pH 6.0) including phenol red was perfused through the intestinal segment (Watson-Marlow Pump 323S, Watson-Marlow Bredel Inc., Wilimington, MA, USA), at the flow rate of 0.1 mL/min. The perfusion buffer was perfused for 30 min to assure steady-state and samples were taken in every 10 min for 90 min. At the end of perfusion, blood samples were collected by cardiac puncture. Blood samples with heparin were centrifuged at 1,000 × g for 10 min at 4 °C to collect plasma samples for LC-MS analysis. Following the termination of the experiment, the length of each perfused intestinal segment was measured.
(§2) The LC-MS analytical method of 5′-mono amino acid ester prodrugs of floxuridine has been reported previously. The LC-MS analysis of dipeptide monoester prodrugs of floxuridine and gemcitabine along with their parent drugs was modified and performed in a similar manner. Briefly, LC-MS analysis of the uptake drug amount was performed in triplicate on LCMS-2010EV (Shimadzu Scientific Instruments, Kyoto, Japan) equipped with an ESI (electrospray ionization) source. The Shimadzu LC-MS system consisting of Shimadzu LC-20AD pumps with DGU-20A in-line vacuum degasser units, and SIL-20A HT autosampler with an InertSustain C-18, 2.1 × 50 mm, 3 µm particle size, (GL Sciences, Torrance, CA, USA) was used for the separation and the effluent from the column was introduced directly to the ionization source. The system was controlled by Shimadzu LCMS solution software (version 3) to collect and process data. All samples were run with Solvent A and Solvent B with Solvent B gradient changing from 0%–90% at a rate of 13.8%/min over a 22 min run. The mobile phase consisted of 0.1% TFA/water (Solvent A) and 0.1% TFA/acetonitrile (Solvent B) for gemcitabine, gemcitabine prodrug and floxuridine prodrug. The mobile phase consisted of 0.1% ammonium hydroxide/water (Solvent A) and 0.1% ammonium hydroxide /acetonitrile (Solvent B) for floxuridine. The ESI probe was operated with a detector voltage of 1.5 kV, CDL temperature of 250 °C, heat block of 200 °C, and nebulizing gas flow of 1.2 mL/min in positive mode for gemcitabine prodrugs and their metabolites. The drying gas was N2 delivered at 0.1 MPa.

[4] = tested on: Caco-2 cells; assay: Uptake study in Caco-2 cells; assay type: cell-based; conditions: 0.1 mM, 1 h
Procedure: Caco-2, Panc-1, and AsPC-1 cells were grown on a 6-well plate for 18, 6, and 6 days, respectively. Wells were rinsed with MES (pH 6.0) buffer twice. Fresh MES buffer was reapplied to each well and incubated at 37 °C for 15 min. Each drug was individually tested from freshly prepared solutions in MES buffer (0.1 mM, total 0.3 mL) with the presence and the absence of 10 mM glycyl-proline (Gly-Pro). The solution was placed in each well and incubated at 37 °C for 60 min. Drug solution was removed and 3 mL of ice-cold PBS was immediately placed in each well. Each well was rinsed with 3 mL of cold-PBS twice and 0.5 mL of methanol/H2O (1:1) containing 0.1% TFA was placed in each well. The cell suspension was collected and transferred to a new tube. Those tubes were spun at 1,000 × g at 4 °C for 5 min. The supernatant was mixed with equal amount of water with either 0.1% formic acid or 0.1% ammonium hydroxide for LC-MS analysis. The cell pullets were used to determine protein amount with the Bio-Rad DC Protein Assay using bovine serum albumin as a standard.
as §2, with “The mobile phase consisted of 0.1% TFA/water (Solvent A) and 0.1% TFA/acetonitrile (Solvent B) for gemcitabine, gemcitabine prodrug and floxuridine prodrug. The mobile phase consisted of 0.1% ammonium hydroxide/water (Solvent A) and 0.1% ammonium hydroxide /acetonitrile (Solvent B) for floxuridine. The ESI probe was operated with a detector voltage of 1.5 kV, CDL temperature of 250 °C, heat block of 200 °C, and nebulizing gas flow of 1.2 mL/min in positive mode for gemcitabine prodrugs and their metabolites. The drying gas was N2 delivered at 0.1 MPa.” left out

[5] = 0.01 N HCl, 37 °C, read-out: 0.01 N HCl t1/2
[6] = SIF pH 6.0, 37 °C, read-out: SIF pH 6.0 t1/2
[7] = pH 7.4 phosphate buffer, 37 °C, read-out: Buffer pH 7.4 t1/2

| Molecule | half-life [1] | half-life [2, 5] | half-life [2, 6] | half-life [2, 7] | drug concentration in mouse plasma, rank among tested compounds ([3]; after in situ perfusion) | first metabolite (5-FU or cytosine) in plasma [3] | prodrug form, share of totally observed amount in plasma [3] | Prodrug, share of uptake [4] | 0.01 N HCl t1/2 ([2]; 0.01 N HCl, 37 °C) | SIF pH 6.0 t1/2 ([2]; SIF pH 6.0, 37 °C) | Buffer pH 7.4 t1/2 ([2]; pH 7.4 phosphate buffer, 37 °C) | parent drug, share of totally observed amount in plasma [3] | Parent drug, share of uptake [4] |
| --- | --- | --- | --- | --- | --- | --- | --- | --- | --- | --- | --- | --- | --- |
| NC(Cc1ccccc1)C(=O)NC(Cc1ccc(O)cc1)C(=O)OCC1OC(n2cc(F)c(=O)[nH]c2=O)CC1O [5′-L-Phenylalanyl-L-tyrosyl-floxuridine] | 0.6733 ± 0.00333 h | > 2 h | > 2 h | > 2 h | highest drug concentration | not observed | 81% | 45% | – | – | – | – | – |
| 2′,2′-difluoro-2′-deoxyuridine [Gemcitabine] | – | – | – | – | – | – | – | – | >2 h | >120 min | >120 min | 83% | 95% |
| O=c1[nH]c(=O)n([C@H]2C[C@H](O)[C@@H](CO)O2)cc1F [Floxuridine, 5-fluoro-2′-deoxyuridine] | 0.695 ± 0.113 h | > 2 h | > 2 h | > 2 h | – | – | – | – | – | – | – | only drug observed | – |
| Nc1ccn(C2OC(COC(=O)C(Cc3ccc(O)cc3)NC(=O)C(N)Cc3ccccc3)C(O)C2(F)F)c(=O)n1 [5′-L-Phenylalanyl-L-tyrosyl-gemcitabine] | 0.503 ± 0.0183 h | > 2 h | > 2 h | 0.56 ± 0.0233 h | – | one-third | 40% | 6% | – | – | – | – | – |
